Test results as given in ChEMBL document CHEMBL4033666, “Synthesis and mechanistic evaluation of novel N'-benzylidene-carbohydrazide-1H-pyrazolo[3,4-b]pyridine derivatives as non-anionic antiplatelet agents” (Eur J Med Chem, 2017).
Activity calls are given as the source filed them.

Columns and labels:
Platelet [1] = assay: Antiplatelet activity in human platelet rich plasma assessed as inhibition of arachidonic acid-induced platelet aggregation at 100 uM preincubated for 2 mins followed by arachidonic acid addition by turbidimetric method relative to control; type: functional
Platelet [2] = assay: Antiplatelet activity in human platelet rich plasma assessed as inhibition of ADP-induced platelet aggregation at 100 uM preincubated for 2 mins followed by ADP addition by turbidimetric method relative to control; type: cell-based
Platelet [3] = assay: Antiplatelet activity in human platelet rich plasma assessed as inhibition of collagen-induced platelet aggregation at 100 uM preincubated for 2 mins followed by collagen addition by turbidimetric method relative to control; type: cell-based
Platelet [4] = assay: Antiplatelet activity in human platelet rich plasma assessed as inhibition of epinephrine-induced platelet aggregation at 100 uM preincubated for 2 mins followed by epinephrine addition by turbidimetric method relative to control; type: cell-based
[5] = Hemolytic activity against human erythrocytes after 3 hrs relative to control; type: ADME, cell-based, Erythrocyte; details: read-out: Activity
Plasma [6] = assay: Change in prothrombin time in human plasma at 100 uM incubated for 15 mins at room temperature and 2 mins at 37 degC in presence of calcium thromboplastin; type: ADME, cell-free
Plasma [7] = assay: Change in activated partial thromboplastin time in human plasma at 100 uM incubated for 15 mins at room temperature and 2 mins at 37 degC in presence of CaCl2; type: ADME, cell-free
Platelet [8] = assay: Antiplatelet activity in human platelet rich plasma assessed as inhibition of arachidonic acid-induced platelet aggregation preincubated for 2 mins followed by arachidonic acid addition by turbidimetric method relative to control; type: functional, cell-based
Platelet [9] = assay: Antiplatelet activity in human platelet rich plasma assessed as inhibition of ADP-induced platelet aggregation preincubated for 2 mins followed by ADP addition by turbidimetric method; type: cell-based
Platelet [10] = assay: Antiplatelet activity in human platelet rich plasma assessed as inhibition of collagen-induced platelet aggregation preincubated for 2 mins followed by collagen addition by turbidimetric method; type: cell-based
Platelet [11] = assay: Antiplatelet activity in human platelet rich plasma assessed as inhibition of epinephrine-induced platelet aggregation preincubated for 2 mins followed by epinephrine addition by turbidimetric method; type: cell-based
[12] = target: T1, Prostaglandin G/H synthase 1 (Ovis aries, UniProt P05979); assay: Inhibition of ovine COX-1 assessed as reduction in PGH2 production up to 100 uM using arachidonic acid as substrate preincubated for 5 mins followed by substrate and hematin addition measured after 2 mins by ELISA relative to control; details: sheep
T1 sequence (P05979 whole entry): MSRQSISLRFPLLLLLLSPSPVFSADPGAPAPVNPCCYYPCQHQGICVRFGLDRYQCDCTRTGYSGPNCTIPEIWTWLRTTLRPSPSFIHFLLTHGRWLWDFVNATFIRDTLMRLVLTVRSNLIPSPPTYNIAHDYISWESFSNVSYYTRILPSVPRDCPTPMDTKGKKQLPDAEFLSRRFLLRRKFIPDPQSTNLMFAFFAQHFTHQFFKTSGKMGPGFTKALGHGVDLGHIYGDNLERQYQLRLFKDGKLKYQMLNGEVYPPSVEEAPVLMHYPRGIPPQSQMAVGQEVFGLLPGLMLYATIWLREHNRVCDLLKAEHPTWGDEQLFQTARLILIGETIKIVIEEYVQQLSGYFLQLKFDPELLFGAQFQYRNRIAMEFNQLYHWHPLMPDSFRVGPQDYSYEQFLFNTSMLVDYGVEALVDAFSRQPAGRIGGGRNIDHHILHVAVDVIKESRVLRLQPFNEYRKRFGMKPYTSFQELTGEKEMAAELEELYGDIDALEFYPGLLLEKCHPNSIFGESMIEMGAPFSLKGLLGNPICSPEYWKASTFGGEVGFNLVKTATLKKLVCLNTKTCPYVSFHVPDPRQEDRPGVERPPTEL

[13] = target: T2, Prostaglandin G/H synthase 2 (Homo sapiens, UniProt P35354); assay: Inhibition of recombinant human COX-2 assessed as reduction in PGH2 production up to 100 uM using arachidonic acid as substrate preincubated for 5 mins followed by substrate and hematin addition measured after 2 mins by ELISA relative to control
T2 sequence (P35354 whole entry): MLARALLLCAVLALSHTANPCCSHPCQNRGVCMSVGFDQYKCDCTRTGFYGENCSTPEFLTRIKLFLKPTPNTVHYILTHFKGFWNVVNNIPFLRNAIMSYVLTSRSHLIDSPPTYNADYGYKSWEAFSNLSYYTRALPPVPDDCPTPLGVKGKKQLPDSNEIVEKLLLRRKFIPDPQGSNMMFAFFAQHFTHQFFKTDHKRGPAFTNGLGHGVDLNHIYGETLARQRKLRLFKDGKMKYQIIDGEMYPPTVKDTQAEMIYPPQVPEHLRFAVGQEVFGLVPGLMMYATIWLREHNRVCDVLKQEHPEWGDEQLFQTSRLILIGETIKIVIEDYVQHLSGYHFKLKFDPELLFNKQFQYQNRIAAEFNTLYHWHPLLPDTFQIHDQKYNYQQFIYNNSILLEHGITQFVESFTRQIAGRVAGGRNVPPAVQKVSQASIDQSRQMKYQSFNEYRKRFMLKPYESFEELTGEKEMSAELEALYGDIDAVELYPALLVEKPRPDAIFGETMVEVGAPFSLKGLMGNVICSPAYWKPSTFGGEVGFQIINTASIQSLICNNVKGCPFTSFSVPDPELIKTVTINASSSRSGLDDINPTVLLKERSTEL

[14] = target: T3, Thromboxane-A synthase (Homo sapiens) (UniProt P24557); assay: Inhibition of TXS in human platelet rich plasma assessed as decrease in TXB2 production at 100 uM using arachidonic acid after 5 mins by ELISA
T3 sequence (whole entry): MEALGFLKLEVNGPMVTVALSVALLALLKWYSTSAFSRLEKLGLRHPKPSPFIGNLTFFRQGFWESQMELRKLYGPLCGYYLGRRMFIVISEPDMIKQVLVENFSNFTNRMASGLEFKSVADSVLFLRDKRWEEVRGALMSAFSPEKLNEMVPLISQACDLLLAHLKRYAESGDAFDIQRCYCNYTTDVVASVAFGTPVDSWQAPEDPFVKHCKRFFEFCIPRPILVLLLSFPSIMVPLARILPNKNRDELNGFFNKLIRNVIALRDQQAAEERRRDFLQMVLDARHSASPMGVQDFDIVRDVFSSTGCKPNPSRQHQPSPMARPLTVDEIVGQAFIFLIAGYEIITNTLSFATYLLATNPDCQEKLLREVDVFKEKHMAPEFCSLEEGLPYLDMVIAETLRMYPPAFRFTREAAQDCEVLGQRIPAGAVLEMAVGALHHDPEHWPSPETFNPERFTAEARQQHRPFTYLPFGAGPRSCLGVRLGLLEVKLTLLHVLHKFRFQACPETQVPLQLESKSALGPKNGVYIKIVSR

[15] = Binding affinity to DOPC/DOPS large unilamellar vesicles assessed as blue shift at 100 uM by DAPI staining based fluorescence assay
Platelet [16] = assay: Drug uptake in human platelet assessed as co-localization with CD31 at 100 uM by epifluorescence assay; type: ADME, cell-based
Platelet [17] = assay: Drug uptake in human platelet assessed as co-localization with CD31 at 100 uM by confocal microscopy analysis; type: ADME, cell-based
Cytochrome P450 3A4 = Cytochrome P450 3A4 (Homo sapiens, UniProt P08684); assay: Inhibition of recombinant human CYP3A4 expressed in baculosomes using BOMR as substrate preincubated for 10 mins followed by substrate/NADP+ addition measured for 1 hr; type: ADME
Sequence of Cytochrome P450 3A4 (P08684 whole entry): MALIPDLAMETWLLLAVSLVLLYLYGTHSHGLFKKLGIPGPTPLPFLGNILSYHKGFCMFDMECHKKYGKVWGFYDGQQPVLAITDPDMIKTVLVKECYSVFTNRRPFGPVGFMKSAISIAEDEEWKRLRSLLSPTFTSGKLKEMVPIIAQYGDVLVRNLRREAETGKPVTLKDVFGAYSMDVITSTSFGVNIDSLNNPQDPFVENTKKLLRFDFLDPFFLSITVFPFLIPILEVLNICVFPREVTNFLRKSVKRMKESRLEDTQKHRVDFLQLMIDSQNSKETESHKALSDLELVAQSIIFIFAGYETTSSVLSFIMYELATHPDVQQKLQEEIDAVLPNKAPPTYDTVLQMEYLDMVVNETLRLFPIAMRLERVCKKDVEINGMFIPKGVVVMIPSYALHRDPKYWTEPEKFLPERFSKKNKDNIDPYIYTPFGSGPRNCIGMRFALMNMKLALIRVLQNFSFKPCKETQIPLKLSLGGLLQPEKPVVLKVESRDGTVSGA

Platelet [18] = assay: Antiplatelet activity in human platelet rich plasma assessed as inhibition of […]-induced platelet aggregation at 100 uM preincubated for 2 mins followed by […] addition by turbidimetric method; type: functional, cell-based
Blood = assay: Reduction of clot retraction in human whole blood after 2 hrs; type: ADME, tissue-based
[19] = target: Prostaglandin G/H synthase 1 (Homo sapiens, UniProt P23219); assay: Inhibition of COX1 in human platelet rich plasma assessed as decrease in PGE2 production at 100 uM using arachidonic acid as substrate after 5 mins by ELISA
Sequence of Prostaglandin G/H synthase 1 (Homo sapiens, UniProt P23219) (P23219 whole entry): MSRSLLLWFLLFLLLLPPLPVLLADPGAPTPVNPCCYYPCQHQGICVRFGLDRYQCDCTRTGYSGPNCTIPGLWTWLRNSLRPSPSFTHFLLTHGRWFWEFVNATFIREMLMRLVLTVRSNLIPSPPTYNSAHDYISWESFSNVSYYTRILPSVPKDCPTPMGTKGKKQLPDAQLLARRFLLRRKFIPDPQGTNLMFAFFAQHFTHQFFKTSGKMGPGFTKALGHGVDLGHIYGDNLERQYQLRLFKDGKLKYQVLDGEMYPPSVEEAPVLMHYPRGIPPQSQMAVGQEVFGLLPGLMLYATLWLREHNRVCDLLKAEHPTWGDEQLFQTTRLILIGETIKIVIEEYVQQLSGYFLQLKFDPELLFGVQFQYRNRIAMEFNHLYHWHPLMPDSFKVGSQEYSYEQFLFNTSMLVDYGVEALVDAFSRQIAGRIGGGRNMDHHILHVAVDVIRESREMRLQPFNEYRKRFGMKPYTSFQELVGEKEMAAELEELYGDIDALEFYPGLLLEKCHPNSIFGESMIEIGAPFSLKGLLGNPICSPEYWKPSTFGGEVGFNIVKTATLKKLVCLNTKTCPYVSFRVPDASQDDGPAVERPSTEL

SMILES | inhibition at 100 µM (Platelet [1]) [%] | inhibition at 100 µM (Platelet [2]) [%] | inhibition at 100 µM (Platelet [3]) [%] | inhibition at 100 µM (Platelet [4]) [%] | Activity (Plasma [6]) | Activity (Plasma [7]) | also measured
CCOc1ccc(/C=N/NC(=O)c2cc(C(F)(F)F)nc3c2c(C)nn3-c2ccccc2)cc1 | 1.26 | 5.55 | 2 | 13.1 | Non-Toxic | Non-Toxic | hemolysis at 3 h [5]: 30%
Cc1nn(-c2ccccc2)c2nc(C(F)(F)F)cc(C(=O)N/N=C/c3ccc(Br)cc3)c12 | 6.18 | 7.46 | 5.37 | 1.52 | Non-Toxic | Non-Toxic | 
Cc1cc(C(=O)N/N=C/c2ccccc2)c2c(C)nn(-c3ccccc3)c2n1 | 3.96 | 0 | 9.6 | 7 | Non-Toxic | Non-Toxic | 
Cc1nn(-c2ccccc2)c2nc(C(F)(F)F)cc(C(=O)N/N=C/c3ccccc3)c12 | 0.27 | 5.98 | 0 | 14.1 | Non-Toxic | Non-Toxic | 
Cc1cc(C(=O)N/N=C/c2ccc([N+](=O)[O-])cc2)c2c(C)nn(-c3ccccc3)c2n1 | 95 | 0 | 4.1 | 4.15 | Non-Toxic | Non-Toxic | IC50 (Platelet [8]): 78.9 µM; IC50 (Platelet [9]): > 100 µM; IC50 (Platelet [10]): > 100 µM; IC50 (Platelet [11]): > 100 µM; inhibition (INH) [12]: Not Active; inhibition (INH) [13]: Not Active; inhibition [14]: Active; Activity [15]: Active; Drug uptake (Platelet [16]): Active; Drug uptake (Platelet [17]): Active; hemolysis at 3 h [5]: 7.3%; IC50 (Cytochrome P450 3A4): 156 µM; inhibition (Platelet [18]): inactive; Activity (Blood): Non-Toxic; inhibition (INH) [19]: Not Active
Cc1cc(C(=O)N/N=C/c2ccc(C#N)cc2)c2c(C)nn(-c3ccccc3)c2n1 | 24.4 | 33.6 | 1.68 | 0 | Non-Toxic | Non-Toxic | 
Cc1nn(-c2ccccc2)c2nc(C(F)(F)F)cc(C(=O)N/N=C/c3ccc(O)cc3)c12 | 10.4 | 12.5 | 13.3 | 15.9 | Non-Toxic | Non-Toxic | hemolysis at 3 h [5]: 99%
Cc1ccc(/C=N/NC(=O)c2cc(C(F)(F)F)nc3c2c(C)nn3-c2ccccc2)cc1 | 0.27 | 0.27 | 7.84 | 0.71 | Non-Toxic | Non-Toxic | 
O=C(O)/C=C/c1ccc(Cn2ccnc2)cc1 [OZAGREL] |  |  |  |  |  |  | IC50 (Platelet [8]): 53.1 µM; inhibition [14]: Active
Cc1nn(-c2ccccc2)c2nc(C(F)(F)F)cc(C(=O)N/N=C/c3ccc(C#N)cc3)c12 | 4.77 | 4.55 | 3.59 | 0 | Non-Toxic | Non-Toxic | 
Cc1nn(-c2ccccc2)c2nc(C(F)(F)F)cc(C(=O)N/N=C/c3ccc(Cl)cc3)c12 | 6.71 | 10.1 | 0 | 17 | Non-Toxic | Non-Toxic | 
CC(=O)Oc1ccccc1C(=O)O [ASPIRIN] | 96.6 | 41.9 | 85.3 | 58.6 |  |  | IC50 (Platelet [8]): 37.6 µM; inhibition [14]: Active
Cc1nn(-c2ccccc2)c2nc(C(F)(F)F)cc(C(=O)N/N=C/c3ccc([N+](=O)[O-])cc3)c12 | 0 | 6.93 | 0 | 0 | Non-Toxic | Non-Toxic | 
COc1ccc(/C=N/NC(=O)c2cc(C)nc3c2c(C)nn3-c2ccccc2)cc1 | 3.43 | 2.9 | 15 | 8.4 | Non-Toxic | Non-Toxic | 
COc1ccc(/C=N/NC(=O)c2cc(C(F)(F)F)nc3c2c(C)nn3-c2ccccc2)cc1 | 2.39 | 0 | 0 | 0 | Non-Toxic | Non-Toxic | 
CCOc1ccc(/C=N/NC(=O)c2cc(C)nc3c2c(C)nn3-c2ccccc2)cc1 | 1.26 | 1.69 | 0 | 0 | Non-Toxic | Non-Toxic | 
Cc1nn(-c2ccccc2)c2nc(C(F)(F)F)cc(C(=O)N/N=C/c3ccc(F)cc3)c12 | 0 | 7.95 | 0.3 | 0 | Non-Toxic | Non-Toxic | 
